Starred links: 1 amine or outer side, 2 acyl side, 3 side chain; linkers in the order of their positions; H or OH if unused. Positions of bridges follow the written chain, without caps; N, C: chain ends. Non-standard residues stand in square brackets, D forms with d. Residues, ends and D or L forms follow the SMILES beside them. Groups on a side chain read outwards from the residue. Chains are numbered I, II in the order given. *: point of attachment. X7 = O=C(O)CN1CCN(CC(=O)O)CCN([C@H](CCC(=O)*)C(=O)O)CCN(CC(=O)O)CC1; Benzoyl(4-SiFtBu2) = CC(C)(C)[Si](F)(c1ccc(C(=O)*)cc1)C(C)(C)C; DOTA = O=C(O)CN1CCN(CC(=O)O)CCN(CC(=O)*)CCN(CC(=O)O)CC1; d(γGlu) = O=C(O)[C@@H](CCC(=O)[*:2])N[*:1]; 2Nal = N[C@@H](Cc1ccc2ccccc2c1)C(=O)O; dCit = NC(=O)NCCC[C@@H](N)C(=O)O; dNMeOrn = CN[C@H](CCCN)C(=O)O; 4Abz = Nc1ccc(C(=O)O)cc1; dDap = NC[C@@H](N)C(=O)O; CO = O=C([*:1])[*:2]
Legend:
[1] = Octanol/PBS partition coefficient (logD7.4); type: physicochemical; conditions: n-octanol/PBS pH 7.4, radiolabeled compound
Procedure: The tubes were vortexed at maximum speed for 3 min to ensure equilibrium before centrifugation at 15.000×g for 5 min on a Biofuge 15 from Heraeus Holding GmbH (Osterode, Germany). An aliquot of 100 μL of each fraction was measured in the γ-counter and the log D7.4 calculated as follows: […]

[2] = system: CXCR4-expressing Chem_1 cells; test: Determination of internalization, dual tracer with 125I-Fc-131; type: cell-based; conditions: for Cell-bound [%] / Internalized [%]: of total cellular activity
Procedure: CXCR4-expressing Chem_1 cells were grown in DMEM-F12 medium supplemented with 10 vol % FBS, 1 vol % NEA, 1 vol % PenStrep and 1 vol % HEPES (1.00 M). Cells were maintained in a 5% CO2 atmosphere at 37° C.
For in vitro experiments, cells were harvested by removal of the medium and incubation of the cells with trypsine/EDTA (0.05%/0.02%; w/v) for 30 in at 37° C.
Each well (n=3 for every time point) was either treated with 25 μL DMEM-F12 (+5 wt % BSA) or 25 μL of an AMD3100 stock (1 mM in H2O) for blockage of the receptors.
The experiment was stopped by placing the well-plate on ice and removing the supernatant. The cells were washed with 250 μL cold HBSS and the both fractions for each well combined, comprising the amount of unbound radioligand.
The supernatant was removed, the cells washed with cold HBSS and the respective fractions combined to obtain the amount of surface-bound radioligand.
The cells were then incubated with 300 μL NaOH (1.00 M in H2O) for at least 30 at r.t. before the supernatant was removed. The well was washed with another 300 μL NaOH and the fractions combined that contain the amount of internalized radioligand.
The three different fractions were subjected to activity measurement in the γ-counter, measuring the activity of the radionuclide used for the labeling of the peptide under investigation first. […] Data was corrected for non-specific internalization and referred to the specific internalization of the standard ligand

Row | Structure (SMILES) | logD7.4 [1] | Internalized in relation to 125I-Fc-131 [%] ([2]; 30 min) | Cell-bound [%] ([2]; 30 min) | Internalized [%] ([2]; 30 min) | Internalization [% Fc-131] ([2]; 90 min) | Internalized in relation to 125I-Fc-131 [%] ([2]; 90 min) | Cell-bound [%] ([2]; 90 min) | Internalized [%] ([2]; 90 min) | further results
1 | C[C@@H](NC(=O)[C@@H](CCCNC(N)=O)NC(=O)[C@@H](CN)NC(=O)CN1CCN(CC(=O)O)CCN(CC(=O)O)CCN(CC(=O)O)CC1)C(=O)Nc1ccc(C(=O)NCCC[C@@H]2C(=O)N[C@@H](CCCNC(=N)N)C(=O)N[C@@H](Cc3ccc4ccccc4c3)C(=O)NCC(=O)N[C@H](Cc3ccc(O)cc3)C(=O)N2C)cc1 [CXCR4-DOTA-5 [Lu]] (cyclo([dY][dNMeOrn]([4Abz-dA-dCit-dDap-DOTA])R[2Nal]G)) | −3.58 ± 0.08 (8) | 151 ± 4.51 | 4.66 ± 0.45 | 5.80 ± 0.14 |  |  |  |  | Internalized in relation to 125I-Fc-131 [%] ([2]; 15 min): 97.3 ± 8.78%; Cell-bound [%] ([2]; 15 min): 3.47 ± 0.46%; Internalized [%] ([2]; 15 min): 3.52 ± 0.31%; Internalized in relation to 125I-Fc-131 [%] ([2]; 60 min): 151 ± 15.9%; Cell-bound [%] ([2]; 60 min): 5.21 ± 0.48%; Internalized [%] ([2]; 60 min): 6.94 ± 0.59%; Internalized in relation to 125I-Fc-131 [%] ([2]; 120 min): 190 ± 13.0%; Internalization [% Fc-131] 2 h ([2]; 2 h, 177Lu-labeled): 190 % Fc-131; Cell-bound [%] ([2]; 120 min): 3.94 ± 0.45%; Internalized [%] ([2]; 120 min): 9.65 ± 0.16%
2 | C[C@@H](NC(=O)[C@@H](CCCNC(=N)N)NC(=O)[C@@H](CNC(=O)c1ccc([Si](F)(C(C)(C)C)C(C)(C)C)cc1)NC(=O)CC[C@H](C(=O)O)N1CCN(CC(=O)O)CCN(CC(=O)O)CCN(CC(=O)O)CC1)C(=O)Nc1ccc(C(=O)NCCC[C@@H]2C(=O)N[C@@H](CCCNC(=N)N)C(=O)N[C@@H](Cc3ccc4ccccc4c3)C(=O)NCC(=O)N[C@H](Cc3ccc(O)cc3)C(=O)N2C)cc1 [CXCR4-SiFA-1 [Lu]] | 1.41 ± 0.04 (8) |  |  |  |  |  |  |  | 
3 | C[C@@H](NC(=O)[C@@H](CCCNC(=N)N)NC(=O)[C@@H](Cc1c[nH]cn1)NC(=O)[C@@H](CNC(=O)c1ccc([Si](F)(C(C)(C)C)C(C)(C)C)cc1)NC(=O)CC[C@H](C(=O)O)N1CCN(CC(=O)O)CCN(CC(=O)O)CCN(CC(=O)O)CC1)C(=O)Nc1ccc(C(=O)NCCC[C@@H]2C(=O)N[C@@H](CCCNC(=N)N)C(=O)N[C@@H](Cc3ccc4ccccc4c3)C(=O)NCC(=O)N[C@H](Cc3ccc(O)cc3)C(=O)N2C)cc1 [CXCR4-SiFA-2 [Ga]] | 0.39 ± 0.07 (8) | 500 ± 23.1 | 0.08 ± 0.23 | 12.5 ± 0.46 | 562 | 562 ± 33.0 | 0.43 ± 0.26 | 16.5 ± 0.94 | 
4 | C[C@@H](NC(=O)[C@@H](CCCNC(=N)N)NC(=O)[C@@H](Cc1c[nH]cn1)NC(=O)[C@@H](CNC(=O)c1ccc([Si](F)(C(C)(C)C)C(C)(C)C)cc1)NC(=O)CC[C@H](C(=O)O)N1CCN(CC(=O)O)CCN(CC(=O)O)CCN(CC(=O)O)CC1)C(=O)Nc1ccc(C(=O)NCCC[C@@H]2C(=O)N[C@@H](CCCNC(=N)N)C(=O)N[C@@H](Cc3ccc4ccccc4c3)C(=O)NCC(=O)N[C@H](Cc3ccc(O)cc3)C(=O)N2C)cc1 [CXCR4-SiFA-2 [Lu]] | 0.80 ± 0.04 (8) |  |  |  |  |  |  |  | 
5 | C[C@@H](NC(=O)[C@@H](CCCNC(=N)N)NC(=O)[C@@H](CN)NC(=O)[C@@H](CNC(=O)c1ccc([Si](F)(C(C)(C)C)C(C)(C)C)cc1)NC(=O)[C@@H](CCCCNC(=O)CC[C@H](C(=O)O)N1CCN(CC(=O)O)CCN(CC(=O)O)CCN(CC(=O)O)CC1)NC(=O)CC[C@H](C(=O)O)N1CCN(CC(=O)O)CCN(CC(=O)O)CCN(CC(=O)O)CC1)C(=O)Nc1ccc(C(=O)NCCC[C@@H]2C(=O)N[C@@H](CCCNC(=N)N)C(=O)N[C@@H](Cc3ccc4ccccc4c3)C(=O)NCC(=O)N[C@H](Cc3ccc(O)cc3)C(=O)N2C)cc1 [CXCR4-SiFA-3 [Ga]] (I: X7-[dK](X7)[dDap](Benzoyl(4-SiFtBu2))[dDap][dR][dA][4Abz] / II: cyclo([dY][dNMeOrn]R[2Nal]G); amide I:C-II:2) | −1.65 ± 0.09 (8) |  |  |  |  |  |  |  | 
6 | C[C@@H](NC(=O)[C@@H](CCCNC(=N)N)NC(=O)[C@@H](CN)NC(=O)[C@@H](CNC(=O)CC[C@H](C(=O)O)N1CCN(CC(=O)O)CCN(CC(=O)O)CCN(CC(=O)O)CC1)NC(=O)[C@@H](CNC(=O)c1ccc([Si](F)(C(C)(C)C)C(C)(C)C)cc1)NC(=O)CC[C@@H](NC(=O)N[C@H](CCC(=O)O)C(=O)O)C(=O)O)C(=O)Nc1ccc(C(=O)NCCC[C@@H]2C(=O)N[C@@H](CCCNC(=N)N)C(=O)N[C@@H](Cc3ccc4ccccc4c3)C(=O)NCC(=O)N[C@H](Cc3ccc(O)cc3)C(=O)N2C)cc1 [CXCR4-SiFA-4 [Ga]] (I: {dE-CO-d(γGlu)}-[dDap](Benzoyl(4-SiFtBu2))[dDap](X7)[dDap][dR][dA][4Abz] / II: cyclo([dY][dNMeOrn]R[2Nal]G); amide I:C-II:2) | −1.92 ± 0.06 (8) | 56.6 ± 8.36 | 0.10 ± 0.15 | 1.36 ± 0.18 | 58 | 57.7 ± 5.43 | 0.37 ± 0.20 | 1.80 ± 0.15 | 

Reference: patent publication US20250288704A1, “CXCR4-LIGANDS FOR DIAGNOSTIC AND THERAPEUTIC USE AND PRECURSORS THEREOF” (priority 2021, published 2025)
